Measurements reported in US10220040B2, “Compounds, compositions and methods useful for cholesterol mobilization” (Cerenis Therapeutics Holding SA, priority 2010, dated 2019).

Target: human P2Y13 receptor (Homo sapiens (Human), UniProt Q9BPV8)
Assay: Ca++ flux agonist assay on P2Y13 receptor transfected 1321N1 cells
Assay type: cell-based
Conditions: Table 4, measured from data of Figure 2; comma is decimal sign
Description: Compounds were assayed for their agonist activity on P2Y13 GPCR transfected cells using a Ca++ flux assay (associated to fluorescent dye detection) with the Reference Compound as positive reference. Two cell lines, 1321N1-P2Y13 stably expressing human P2Y13 receptor, and 1321N1 parental cell line as control, were used in this assay. 1321N1 Parental and 1321N1 P2Y13 were seeded into T25 flasks at 3 million cells per flask, respectively. Cells were incubated at 37 degrees Celsius in 5% CO2 overnight. The day after, cells were transfected with Gqi5 protein using Fugene transfection reagent (Roche's Fugene Reagent).
After 24 hours of transfection, cells were collected from flasks and seeded in 384-well plates at 8000 cells per well. The assays were carried out 48 hours after Gqi5 transfection.
Methods: The Ca++ flux assay was conducted according to the manufacturer's protocol (Molecular Devices FLIPR Calcium 4 Assay kit (R8142). Briefly, cell culture media were aspirated from the wells and replaced with 25 μL of Hank's buffer or PBS buffer. 25 μL of Ca++ dye was added into each assay well. The plate was incubated for 1 hour at 37° C. in 5% CO2. After the incubation, the plate was transferred to FlexStation III (FlexStation III (Molecular Devices)). The compounds were automatically injected into each well.

human P2Y13 receptor, sequence (Q9BPV8 whole entry): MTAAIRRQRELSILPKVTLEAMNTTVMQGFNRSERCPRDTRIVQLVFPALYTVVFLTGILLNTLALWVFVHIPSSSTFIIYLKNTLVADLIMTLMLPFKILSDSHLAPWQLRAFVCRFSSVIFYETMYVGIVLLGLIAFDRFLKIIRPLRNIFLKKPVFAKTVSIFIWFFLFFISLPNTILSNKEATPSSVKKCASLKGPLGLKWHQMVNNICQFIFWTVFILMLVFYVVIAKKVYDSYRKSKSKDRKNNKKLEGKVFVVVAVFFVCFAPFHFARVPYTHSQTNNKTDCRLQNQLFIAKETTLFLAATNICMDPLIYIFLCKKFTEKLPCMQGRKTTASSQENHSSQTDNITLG

- EC50: 40.3 µM
SMILES: CN(C)c1ncc(CN2CCC(c3cc(O)nc(N4CCOCC4)n3)CC2)cn1 [Compound IIa, 6-[1-(2-Dimethylaminopyrimidin-5-ylmethyl)-piperidin-4-yl]-2-morpholin-4-yl-pyrimidin-4-ol]
